Source: ChEMBL document CHEMBL1201862, “PubChem BioAssay data set” (2004)
Values joined by “and” are separate entries in the source; they are usually repeats but may differ in a detail not shown here. Identical values can stand only once.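 All cell lines were grown in 96-well plates and treated with compound for 48 hours. GI50: concentration for 50% inhibition of growth.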 Active and inactive are the calls of the source. Rule as the data show it: active = GI50 up to about 1.1 µM and inactive = higher.

What was measured:
Assay in all cases: inhibition of tumour cell growth, NCI panel, 48 h
[1] = system: A498
[2] = system: CCRF-CEM
[3] = system: HCC 2998
[4] = system: HCT-15
[5] = system: HOP-62
[6] = system: IGROV-1
[7] = system: MDA-MB-435
[8] = system: NCI-H23
[9] = system: NCI-H460
[10] = system: NCI-H522
[11] = system: OVCAR-5
[12] = system: OVCAR-8
[13] = system: SK-MEL-5
[14] = system: SN12C
[15] = system: SNB-75
[16] = system: SW-620
[17] = system: U-251
[18] = system: UACC-257
[19] = system: SNB-19
[20] = system: SR

Row | Compound | GI50 [1] | GI50 [2] | GI50 [3] | GI50 [4] | GI50 [5] | GI50 [6] | GI50 [7] | GI50 [8] | GI50 [9] | GI50 [10] | GI50 [11] | GI50 [12] | GI50 [13] | GI50 [14] | GI50 [15] | GI50 [16] | GI50 [17] | GI50 [18] | GI50 [19] | GI50 [20]
1 | O=c1oc2ccc3ccccc3c2cc1-c1nc2ccccc2s1 | > 100 µM (inactive) | > 100 µM (inactive) | > 100 µM (inactive) | > 100 µM | > 100 µM (inactive) | > 100 µM (inactive) | > 100 µM (inactive) | > 100 µM (inactive) | > 100 µM (inactive) | > 100 µM (inactive) | > 100 µM (inactive) | > 100 µM (inactive) | > 100 µM (inactive) | > 100 µM (inactive) | > 100 µM (inactive) | > 100 µM (inactive) | > 100 µM (inactive) | > 100 µM (inactive) |  | 
2 | Cc1nnc2n(c1=O)CCCN2C |  | > 100 µM (inactive) | > 100 µM (inactive) | > 100 µM | > 100 µM (inactive) | > 100 µM (inactive) | > 100 µM (inactive) | > 100 µM (inactive) | > 100 µM (inactive) |  | > 100 µM (inactive) | > 100 µM (inactive) | > 100 µM (inactive) | > 100 µM (inactive) | > 100 µM (inactive) | > 100 µM (inactive) | > 100 µM (inactive) |  | > 100 µM (inactive) | > 100 µM (inactive)
3 | O=C(O)C1CCCN1Cc1cc2ccccc2c2ccccc12 (stereo not drawn) | > 100 µM (inactive) |  |  | > 100 µM | > 100 µM (inactive) | > 100 µM (inactive) | > 100 µM (inactive) | > 100 µM (inactive) | > 100 µM (inactive) | > 100 µM (inactive) | > 100 µM (inactive) | > 100 µM (inactive) | > 100 µM (inactive) | > 100 µM (inactive) | > 100 µM (inactive) | > 100 µM (inactive) | > 100 µM (inactive) | > 100 µM (inactive) | > 100 µM (inactive) | 
4 | Oc1ccc2c(c1)OCC1c3ccccc3OC21 (stereo not drawn) | > 100 µM (inactive) | 30.3 µM (inactive) | 27.8 µM (inactive) | 82.6 µM | > 100 µM (inactive) | 51.9 µM (inactive) | 33.8 µM (inactive) | 44.9 µM (inactive) | 41.6 µM (inactive) |  | > 100 µM (inactive) | 48.3 µM (inactive) | 38.5 µM (inactive) | 51.6 µM (inactive) | 45.2 µM (inactive) | 63.5 µM (inactive) | 42.6 µM (inactive) | 86.9 µM (inactive) | 40.6 µM (inactive) | 
5 | COc1cc(-c2oc3c(OC)c(OC)cc(O)c3c(=O)c2OC)ccc1O [TERNATIN] |  | 3.38 µM (inactive) and 2.42 µM (inactive) |  | 4.54 µM and 6.24 µM |  | 4.89 µM (inactive) and 4.1 µM (inactive) | 10.6 µM (inactive) |  |  |  | 34.6 µM (inactive) | 20.7 µM (inactive) |  |  |  |  |  | > 100 µM (inactive) | 41.6 µM (inactive) and 49.8 µM (inactive) | 
6 | CN(C)/C=N/C1CCC(C(C)(C)C)CC1 (stereo not drawn) | 24 µM (inactive) |  | 14.8 µM (inactive) | 17.2 µM | 17.2 µM (inactive) | 21.5 µM (inactive) | 18.7 µM (inactive) | 17.8 µM (inactive) | 16.7 µM (inactive) | 16.6 µM (inactive) | 17.7 µM (inactive) | 15.6 µM (inactive) | 17.3 µM (inactive) | 17.7 µM (inactive) | 19.5 µM (inactive) | 16.9 µM (inactive) | 16.1 µM (inactive) | 15.7 µM (inactive) | 20.4 µM (inactive) | 
7 | Cc1ccc(S(=O)(=O)NC(=O)NNc2ccc(F)cc2)cc1 | > 100 µM (inactive) | > 100 µM (inactive) | > 100 µM (inactive) | > 100 µM | > 100 µM (inactive) | > 100 µM (inactive) | > 100 µM (inactive) | > 10 µM (inactive) | > 100 µM (inactive) | > 100 µM (inactive) | > 100 µM (inactive) |  | > 100 µM (inactive) | > 100 µM (inactive) |  | > 100 µM (inactive) | > 100 µM (inactive) | > 100 µM (inactive) | > 100 µM (inactive) | 
8 | CCOC(=O)CCCNC(=O)CCCCC(=O)N(C)C | > 100 µM (inactive) | > 100 µM (inactive) | > 100 µM (inactive) | > 100 µM | > 100 µM (inactive) | > 100 µM (inactive) | > 100 µM (inactive) | > 100 µM (inactive) | > 100 µM (inactive) | > 100 µM (inactive) | > 100 µM (inactive) | > 100 µM (inactive) | > 100 µM (inactive) | > 100 µM (inactive) |  | > 100 µM (inactive) | > 100 µM (inactive) | > 100 µM (inactive) | > 100 µM (inactive) | 
9 | CC(C)C(C)C(O)C(O)C(C)C1CCC2C3COC(=O)C4CC(O)C(O)CC4(C)C3CCC12C (stereo not drawn) | > 100 µM (inactive) | 22.8 µM (inactive) | > 100 µM (inactive) | 66.1 µM |  | > 100 µM (inactive) | > 100 µM (inactive) | 92.7 µM (inactive) | 57.9 µM (inactive) | 55.2 µM (inactive) | > 100 µM (inactive) | 62.8 µM (inactive) | 35 µM (inactive) | 33.7 µM (inactive) |  | > 100 µM (inactive) | 62.5 µM (inactive) | > 100 µM (inactive) | 28.1 µM (inactive) | 
